# Source: US5679671A, “Amino acid derivative” (Eisai Co., Ltd., priority 1993, dated 1997)
# Legend:
# Format in all cases: biochemical
# NEP [1] = biological target: T1, NEP (Rattus norvegicus, UniProt P07861); assay: NEP inhibition activity (Experiment E-1); design: membrane fraction prepared from rat renal cortex; from tissue; host or cells: rat renal cortex, membrane fraction (method of Booth and Kenny); settings: rat renal cortex membrane fraction
# T1 sequence (P07861 1-750): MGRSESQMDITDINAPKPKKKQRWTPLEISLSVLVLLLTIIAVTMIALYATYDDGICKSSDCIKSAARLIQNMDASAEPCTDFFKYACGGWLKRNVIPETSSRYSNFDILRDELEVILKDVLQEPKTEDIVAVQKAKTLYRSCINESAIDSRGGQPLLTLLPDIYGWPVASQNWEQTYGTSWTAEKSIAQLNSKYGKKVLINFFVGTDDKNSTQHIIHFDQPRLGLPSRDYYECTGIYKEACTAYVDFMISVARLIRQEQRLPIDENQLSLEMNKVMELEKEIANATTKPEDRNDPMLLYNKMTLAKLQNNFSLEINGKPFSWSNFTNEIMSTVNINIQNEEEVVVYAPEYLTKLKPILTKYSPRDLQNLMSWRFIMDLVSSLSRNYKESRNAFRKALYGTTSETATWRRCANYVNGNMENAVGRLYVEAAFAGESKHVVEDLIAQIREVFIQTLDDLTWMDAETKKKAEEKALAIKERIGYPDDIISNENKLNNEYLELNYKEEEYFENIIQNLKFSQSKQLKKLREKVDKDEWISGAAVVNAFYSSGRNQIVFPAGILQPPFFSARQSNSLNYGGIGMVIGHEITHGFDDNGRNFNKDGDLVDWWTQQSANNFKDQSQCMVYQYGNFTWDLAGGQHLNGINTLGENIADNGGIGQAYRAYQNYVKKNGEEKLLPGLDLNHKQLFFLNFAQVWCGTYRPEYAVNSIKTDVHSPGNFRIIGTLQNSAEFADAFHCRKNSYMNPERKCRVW
# Procedure: (§1) As a source of the enzyme NEP, a membrane fraction prepared from rat renal cortex in accordance with the method of Booth and Kenny (A Rapid Method for the Purification of Microvilli from Rabbit Kidney., Andrew G. Booth and A. John Kenny, Biochem. j., 1974, 142,575-581.) was employed. The NEP activity was determined in accordance with the method of Orlowsky and Wilk (Purification and Specificity of a Membrane-Bound Metalloendpeptidase from Bovine Pituitaries., Marian Orlowsky and Shrwin Wilk, Biochemistry, 1981, 20, 4942-4950.). Now the procedure will be briefly described.
# (§2) As a substrate, benzoyl-glycyl-arginyl-arginyl-2-naphthylamide (benzoyl-Gly-Arg-Arg-2 naphthylamide (Nova Biochem, Switzerland)) was used. In the presence of an NEP enzyme preparation and excessive leucine aminopeptidase (sigma chemical Co., U.S.A.), the liberated naphthylamine was made to undergo color development with first garnet (Sigma chemical Co., U.S.A.), followed by the measurement of the absorbance at a wavelength of 540 nm.
# (§3) To determine the NEP inhibition activity and the ACE inhibition activity, the inhibitor was added to the assay systems of both enzyme activities as described above in such a manner as to give the final concentrations of 1, 3, 10, 30, 100, 800 and 1000 nM and inhibition curves were prepared. Then the concentration at which 50% inhibition was achieved was taken as IC50.
# NEP [2] = biological target: T1, NEP; assay: NEP inhibition activity (Experiment F-1); design: membrane fraction prepared from rat renal cortex; from tissue; host or cells: rat renal cortex, membrane fraction (method of Booth and Kenny); settings: rat renal cortex membrane fraction
# Procedure: as §1, with “142, 575-581.)” for “142,575-581.)”
# as §2, with “(benzoyl-Gly-Arg-Arg-2-naphthylamide” for “(benzoyl-Gly-Arg-Arg-2 naphthylamide”
# as §3, with “With respect to” for “To determine”, “300” for “800”, “1000” for “1000 nM and”, “prepared, and then” for “prepared. Then”
# NEP [3] = biological target: T1, NEP; assay: NEP inhibition activity (Experiment C-1); settings: Table C-1
# Procedure: The NEP activity was determined by the following manner in accordance with the method of Orlowsky and Wilk (Purification and Specificity of a Membrane-Bound Metalloendpeptidase from Bovine Pituitaries., Marian Orlowsky and Shrwin Wilk, Biochemistry, 1981, 20, 4942-4950.).
# as §2, with “(benzoyl-Gly-Arg-Arg-2-naphthylamide” for “(benzoyl-Gly-Arg-Arg-2 naphthylamide”
# With respect to the NEP inhibition activity, the test compound was added to the experimental system as described above in such a manner as to give the final concentrations of 1, 3, 10, 30, 100, 300 and 1000 nM, an inhibition curve was prepared, and then the concentration at which 50% inhibition was achieved was taken as IC50. As a comparative compound, [4S-[4α,7α(R*),12bβ]]-7-[(1-oxo-2-(S)-thio-3-phenyl-propyl)amino]-1,2,3,4,6,7,8,12b-octahydro-6-oxopyrido-[2,1-a][2]benzazepine-4-carboxylic acid was used.
SMILES,IC50 (NEP [1]) [nM],IC50 (NEP [2]) [nM],IC50 (NEP [3]) [nM]
"CC(C)[C@H](S)C(=O)N[C@H]1Cc2ccc(-c3ccccc3)cc2[C@H]2CCC[C@@H](C(=O)O)N2C1=O [Example E-10, [4S-[4α,7α(R*),12bβ]]-7-[(S)-2-Mercapto-3-methylbutyrylamino]-6-oxo-11-phenyl-1,2,3,4,6,7,8,12b-octahydropyrido[2,1-a][2]benzazepine-4-carboxylic acid]",8.2,–,–
"O=C(N[C@H]1CCC[C@H]2SC[C@@H](C(=O)O)N2C1=O)[C@@H](S)Cc1ccccc1 [Example F-17, [3R-[3α,6α(S*),9aβ]]-6-[[(S)-1-Oxo-2-thio-3-phenylpropyl]amino]-octahydro-5-oxothiazol[3,2-a]-azepine-3-carboxylic acid]",–,11.1,–
"O=C(N[C@H]1Cc2ccccc2[C@H]2CCC[C@@H](C(=O)O)N2C1=O)[C@@H](S)Cc1ccccc1 [Comp. cpd. E-1, [4S-[4α,7α(R*),12bβ]]-7-[(1-oxo-2-(S)-thio-3-phenyl-propyl)amino]-1,2,3,4,6,7,8,12b-octahydro-6-oxopyrido-[2,1-a][2]benzazepine-4-carboxylic acid, reference compound]",27,13.5,27

# The remaining compounds from weak to strong by IC50 (NEP [3]), led by results:
IC50 (NEP [1]) [nM],IC50 (NEP [2]) [nM],IC50 (NEP [3]) [nM],SMILES
14,–,17.8,"CC[C@H](C)[C@H](S)C(=O)N[C@H]1Cc2ccc(-c3ccccc3)cc2[C@H]2CCC[C@@H](C(=O)O)N2C1=O [Example C-14, [4S-[4α,7α(R*),12bβ]]-7-[[(2S,3S)-3-Methyl-1-oxo-2-thiopentyl]amino]-6-oxo-11-phenyl-1,2,3,4,6,7,8,12b-octahydropyrido[2,1-a][2]benzazepine-4-carboxylic acid]"
–,9.2,13.4,"CC[C@H](C)[C@H](S)C(=O)N[C@H]1CCC[C@H]2SC[C@@H](C(=O)O)N2C1=O [Example C-8, [3R-[3α,6α,(S*),9aβ]]-6-[[(2S,3S)-3-methyl-1-oxo-2-thiopentyl]amino]-octahydro-5-oxothiazol[3,2-a]-azepine-3-carboxylic acid]"
–,–,12.5,"CC[C@H](C)[C@H](S)C(=O)NC1CCc2ccccc2N(CC(=O)O)C1=O (stereo partly drawn) [Example A-9, 1-Carboxymethyl-3-[(2S,3S)-2-mercapto-3-methylvarelylamino]-1H-[1]benzazepin-2-one]"
–,–,6.2,"CC[C@H](C)[C@H](S)C(=O)N[C@H]1CCc2ccccc2N(CC(=O)O)C1=O [Example A-11, (S)-3-[(2S,3S)-2-Mercapto-3-methylvarelylamino]-1-carboxymethyl-2,3,4,5-tetrahydro-1H-[1]benzazepin-2-one]"
